Literature values as cited in patent publication US12473269B2, “Urolithin derivatives and methods of use thereof” (Vandria SA, priority 2021, dated 2025).

System: C2C12 myoblasts
Conditions: treatment of C2C12 myoblasts; mitochondrial fragmentation and decrease in mitochondrial content; Ryu et al., Nat Med 2016

O=c1oc2cc(O)ccc2c2ccc(O)cc12 [UA, Urolithin A]
induction of mitophagy: induction of mitophagy
